Experimental data taken from paper PMC9389462, “Small molecule MMRi62 targets MDM4 for degradation and induces leukemic cell apoptosis regardless of p53 status” (Frontiers in Oncology, 2022).

Biological target: T1, MDM4 (Homo sapiens, UniProt O15151+Q00987)
T1 construct: RING domain (MDM2-MDM4 RING heterodimer, pETDuet, E. coli); with MDM2 (RING domain)
Test: microscale thermophoresis on preformed, dye-labelled MDM2-MDM4 RING heterodimer
Format: binding

T1 sequence (O15151 416-490 limits assumed): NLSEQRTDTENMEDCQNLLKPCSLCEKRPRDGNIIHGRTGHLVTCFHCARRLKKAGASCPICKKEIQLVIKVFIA
T1 sequence (Q00987 430-491 limits assumed): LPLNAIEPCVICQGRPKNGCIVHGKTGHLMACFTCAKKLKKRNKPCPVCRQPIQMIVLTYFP

Structure (SMILES) | Kd [nM]
Oc1c(C(Nc2ccccn2)c2cccc(Cl)c2Cl)ccc2cccnc12 (racemic) [MMRi62] | ~140
O=C(O)c1ccc(C(Nc2ccccn2)c2cc(Cl)c3cccnc3c2O)cc1 (racemic) [MMRi67] | ~896
